Source: patent US7692011B2, “8-hydroxy and 8-mercapto quinazolinones” (Prana Biotechnology Limited, priority 2002, dated 2010)
In brackets after ≈: the same amount, converted by molar mass. Where a name gives a salt, the structure may show the parent alone. Read-outs that look alike come from different tables or passages of the source.

Legend:
Aβ 1-42 = target: T1, Aβ 1-42 (Homo sapiens, UniProt P05067); test: Assay 1 Fluorometric H2O2 assay: inhibition of hydrogen peroxide generation by Aβ in the presence of copper; type: biochemical; conditions: Aβ 1-42 with Cu-Gly, DCF fluorescence
T1 construct: The reaction solutions contained Aβ 1-42
T1 sequence (P05067 672-713 limits assumed): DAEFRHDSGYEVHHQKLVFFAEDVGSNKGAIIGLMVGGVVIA
Protocol: Assay 1. Fluorometric H2O2 Assay
A fluorometric assay was used to test the ability of a test compound to inhibit hydrogen peroxide generation by Aβ in the presence of copper based on dichlorofluoroscein diacetate (DCF; Molecular Probes, Eugene Oreg.). The DCF solution (5 mM) in 100% dimethyl sulphoxide (previously purged with argon for 1 hr at 20° C.) was deacetylated in the presence of 0.025M NaOH for 30 min and neutralised at pH 7.4 to a final concentration of 1 mM. Horseradish peroxidase ([…]) stock solution was prepared to 1 μM at pH 7.4. The reactions were carried out in PBS, pH 7.4 in a 96 well plate (total volume=250 μl/well). The reaction solutions contained Aβ 1-42 at concentrations in the range of 50 nM to 1 μM, copper-glycine chelate (Cu-Gly), was prepared by adding CuCl2 to glycine in the ratio of 1:6 and added to the Aβ in the proportion 2Cu-Gly: 1Aβ), reducing agents including dopamine (5 μM) or ascorbic acid, deacetylated DCF 100 μM, and HRP, 0.1 μM. 1-10 μM EDTA or another chelator may also be present as a control for free copper, but was not required for the assay to function. The reaction mixture was incubated at 37 C for 60 min. Catalase (4000 units/ml) and H2O2 (1-2.5 μM) standards in PBS pH 7.4 may be included as positive controls. Fluorescence was recorded using a plate reader with excitation and emission filters at […] respectively. H2O2 concentration may be established by comparing fluorescence with the H2O2 standards. Inhibition of Aβ H2O2 production was assayed by including a given concentration of test compound(s) in the test wells.

[1] = test system: Neuronal cortical cells treated with Aβ1-42; test: Assay 3(c) Aβ neurotoxicity and Aβ neuroprotection (MTS); type: cell-based, mouse; conditions: 20 uM Aβ1-42, 4 days
Protocol: Primary Cortical Neuronal Cultures
Cortical cultures were prepared as previously described (White et al., 1998). Embryonic day 14 BL6Jx129sv mouse cortices were removed, dissected free of meninges and dissociated in 0.025% (wt/vol) trypsin. Dissociated cells were plated in 48 well culture plates at a density of 2×10^6 cells/mL in MEM with 25% (vol/vol) FCS and 5% (vol/vol) HS and incubated at 37° C., 2 hrs. Media was then replaced with Neurobasal media (Invitrogen Life Technologies) and B27 supplements (Invitrogen Life Technologies). Cultures were maintained at 37° C. in 5% CO2. Prior to experimentation, the culture medium was replaced with Neurobasal media and B27 minus antioxidants (Invitrogen Life Technologies).
(c) Assay for Aβ Neurotoxicity and Aβ Neuroprotection
Neuronal cortical cells were cultured for five days as per Assay 2. On day six the neurobasal (NB) media (Invitrogen Life Technologies) and B27 supplement (Invitrogen Life Technologies) were replaced with NB media and B27 supplement (no antioxidants). On day six, test compounds were individually added to the neuronal cell cultures:
(§1) The test compounds were dissolved in 100% DMSO to a concentration of 2.5 mM (10 mM if excess compound was weighed out per vial—then diluted to 2.5 mM). 2.5 mM stock solution was serially diluted 1 in 10 to give working solutions of 250 uM, 25 uM, 2.5 uM.
Aβ was initially dissolved in 20 mM NaOH to a concentration of 1 mM and sonicated for 5 minutes. The peptide was then diluted in H2O and 10×PBS to a final concentration of 200 uM Aβ in 1×PBS. The peptide was again sonicated for 5 minutes and then spun at 14000 rpm for 5 min and transferred to a fresh tube.
as §1, with “in 10 [in NB media and B27 (no antioxidants)] to give” for “in 10 to give”, “2.5 uM. Test compounds were not added directly to cells, instead they were added to a 48 well ‘Drug Plate’ as comprised below:” for “2.5 uM.”
Preparation of “Drug Plate”:
• Well 1: 515 ul NB+B27(no antioxidant)*+24 ul 25 uM test compound+60 ul Aβ diluent** • Well 2: 515 ul NB+B27(no antioxidant)+24 ul 250 uM test compound+60 ul Aβ diluent • Well 3: 515 ul NB+B27(no antioxidant)+24 ul test compound diluent***+60 ul Aβ1-42 • Well 4: 515 ul NB+B27(no antioxidant)+24 ul 2.5 uM test compound+60 ul Aβ1-42 • Well 5: 515 ul NB+B27(no antioxidant)+24 ul 25 uM test compound+60 ul Aβ1-42 • Well 6: 515 ul NB+B27(no antioxidant)+24 ul 250 uM test compound+60 ul […] • Well 7: 515 ul NB+B27(no antioxidant)+24 ul test compound diluent+60 ul Aβ1-42 diluent • Well 8: 600 ul NB+B27(no antioxidant) • N.B. 60 ul Aβ1-42 equals 20 ul Aβ1-42 per well equals 20 uM Aβ1-42
The Drug Plate was incubated at 37° C. for 15 mins. 200 ul of each well was added in triplicate to the corresponding cell plate. The cell plate was incubated at 37 C, for 4 days. • * NB media+B27 (no antioxidants), • ** Aβ diluent 2 mM NaOH, 1×PBS • *** PBT diluent 10% DMSO in NB+B27(no antioxidant) Completion of the Assay:
On the 4th day after treating the cells the assay is completed by adding MTS to the cells.

[2] = Assay 12 Turbidimetric solubility measurements; type: physicochemical; conditions: kinetic from dmso stock, nephelometry
Protocol: Turbidimetric Solubility Measurements
The solubility estimate was measured at both pH 2.0 and pH 6.5. This is within the pH range that can be anticipated along the proximal gastrointestinal tract in humans.
The compounds were dissolved in DMSO to appropriate concentrations and then spiked into either 0.01M HCl (approx. pH=2.0) or pH 6.5 isotonic phosphate buffer, the final DMSO concentration being 1%. Samples were then analysed via Nephelometry to determine a solubility range. [as per D. Bevan and R. S. Lloyd, Anal. Chem. 2000, 72, 1781-1787].

[3] = test system: moderately severe AD patients; test: Phase II clinical trial in Alzheimer's disease: cognition (ADAS-cog); type: in vivo, human; conditions: more-severely affected groups
Description: The performance of the less-severely affected group (ADAS-cog<25) deteriorated negligibly over this interval, so cognitive changes could not be discriminated in this stratum.
Study population: The study took place at the AD clinical trials unit, Mental Health Research Institute of Victoria and at the Royal Melbourne Hospital. Criteria for inclusion in the study were: informed consent; a diagnosis of probable AD by NINCDS-ADRDA criteria (McKhann et al., 1984); AD Assessment Scale-cognitive (ADAS-cog) (Rosen et al., 1984) score of 18-45; Mini Mental State Examination (MMSE) (Folstein et al., 1975) score of 10-24; on donepezil 5 mg or 10 mg for at least 6 months; relative or carer willing and able to support the trial; able to complete trial examinations; primary sensorial functions intact.
(§2) Study design: The study was a double blind, placebo-controlled, parallel group randomized design. […] The duration of the study was 36 weeks.
Outcome measures: The primary clinical efficacy variable was a change from baseline score on the ADAS-cog conducted at baseline and at weeks 4, 12, 24 and 36. […]
Data preparation and statistical analysis: Data monitoring and management were undertaken by independent contractors (Kendle International and Health Research Solutions, Melbourne). […] Differences between groups on categorical measures were analysed using exact statistical methods in order to maximise power. […]

[4] = Phase II clinical trial: plasma metal levels (ICP-MS); type: in vivo, human; conditions: AD patients, oral
Description: as §2
Blood samples were collected by antecubital venepuncture except on weeks 12, 24 and 36 when they were collected by an indwelling catheter. […] Zn data from these intervals were therefore omitted from analysis.
Outcome measures: The primary clinical efficacy variable was a change from baseline score on the ADAS-cog conducted at baseline and at weeks 4, 12, 24 and 36. This measure was chosen to allow comparability of treatment effects with current therapeutics such as donepezil, where efficacy trials also used ADAS-cog as their primary outcome measure (Rogers et al., 1998). Although numerous neuropsychological tests could be considered as secondary measures, it was necessary to avoid fatiguing the subjects at review. Therefore the only other cognitive test was the Mini-Mental State Exam (MMSE). The CIBIC+ (clinician interview based impression of change incorporating caregiver information), a subjective observational index was also conducted. Plasma Aβ, and plasma zinc and copper were all taken every four weeks.
Metal levels: Metals were measured by inductively coupled plasma mass spectrometry as previously described (Cherny et al., 2001).

[5] = Phase II clinical trial: therapeutic drug monitoring, blood levels by HPLC; type: in vivo; conditions: human, oral, read-out: Steady state pre-dose blood level
Description: as §2

[6] = aqueous buffer, pH 6.5 isotonic phosphate buffer, 1% DMSO, read-out: Assay 12 Solubility at pH 6.5
[7] = simulated gastric fluid, 0.01 M HCl, pH 2.0, 1% DMSO, read-out: Assay 12 Solubility in 0.01 M HCl, pH 2.0

IC50 (Aβ 1-42) [nM] | SMILES | Assay 3(c) Neuroprotection (% inhibition of Abeta toxicity) [1] [%] | further results
750 | O=c1c2c(Cl)cc(Cl)c(O)c2ncn1-c1ccc(F)cc1 [PBT-1055, 5,7-Dichloro-3-(4-fluorophenyl)-8-hydroxy-3H-quinazolin-4-one] | 29 | solubility [2, 6]: 3 to 6.3 µg/mL (≈ 9.23 to 19.4 µM); solubility [2, 7]: 3 to 6.3 µg/mL (≈ 9.23 to 19.4 µM)
 | Cc1cnc2c(O)c(Cl)cc(Cl)c2n1 [PBT-1065, 6,8-Dichloro-2-methylquinoxalin-5-ol] | 7 | 
 | Cc1cnc2c(Cl)cc(Cl)c(O)c2n1 [PBT 1064, 6,8-Dichloro-3-methylquinoxalin-5-ol] | 29 | 
1600 | O=c1[nH]cnc2c(O)cccc12 [PBT-1049, 8-hydroxy-3H-quinazolin-4-one] | 11 | 
 | CN(C)Cc1cnc2c(Cl)cc(Cl)c(O)c2n1 [PBT-1066, 6,8-Dichloro-3-(dimethylaminomethyl)quinoxalin-5-ol hydrochloride] |  | solubility [2, 6]: > 100 µg/mL; solubility [2, 7]: > 100 µg/mL
1140 | CNCc1ccc2cnc(C(=O)NCc3ccc(F)cc3)c(O)c2n1 [PBT-1070] |  | 
 | Oc1c(I)cc(Cl)c2cccnc12 [PBT-1, iodochlorohydroxyquinoline] |  | Difference in mean change from baseline ADAS-cog score over placebo ([3]; week 24): 7.37 (95% CI: 1.51-13.24); Difference in mean change from baseline ADAS-cog score over placebo ([3]; week 36): 6.36 (95% CI: −0.50-13.23); Effect on plasma Cu [4]: no effect; Elevation of total plasma Zn [4]: ≈ 30%; concentration at 12 weeks ([5]; 250 mg/day, total daily dosage 250 mg): 4030 ± 2100 ng/mL; concentration at 24 weeks ([5]; 500 mg/day, total daily dosage 500 mg): 6740 ± 3700 ng/mL; concentration at 36 weeks ([5]; 750 mg/day, total daily dosage 750 mg): 7600 ± 2150 ng/mL
600 | O=c1c(-c2ccc(Cl)cc2)cnc2c(O)cccn12 [PBT-1069, 3-(4-chlorophenyl)-9-hydroxypyrido[1,2-a]pyrimidin-4-one] |  | 
900 | COC(=O)c1nc(Cl)c2cccnc2c1O [PBT-1045, 5-chloro-8-hydroxy-[1,6]naphthyridine-7-carboxylic acid methyl ester] | 12 | 
350 | O=c1ccnc2c(O)cccn12 [PBT-1048, 9-hydroxypyrido[1,2-a]pyrimidin-4-one] | 22 | 
950 | O=c1[nH]cnc2c(O)c(Cl)cc(Cl)c12 [PBT-1067, 5,7-Dichloro-8-hydroxy-3H-quinazolin-4-one] |  | solubility [2, 6]: 25 to 50 µg/mL (≈ 108 to 216 µM); solubility [2, 7]: 12.5 to 25 µg/mL (≈ 54.1 to 108 µM)
